Source: paper PMC12616683, “In Vivo Atlas of Neuroprotective Cyclic Dipeptides Derived from Food Gelatin Using Peptidomics and Feature-Based Molecular Networking” (Journal of Agricultural and Food Chemistry, 2025)
“And” between values parts separate entries of the source, which are not always exact repeats. Identical values can stand only once. Peptide text beside a SMILES is read from it.

test system: HT-22 cells; test: not given; settings: 20 mM Glu, 24 h

Row | SMILES | HT22 cell viability after Glu exposure
1 | N[C@@H](CCC(=O)O)C(=O)O [Glu, Glutamate] | 40–60%

test system: not given; test: not given; settings: mouse, in vivo, po, 1000 mg/kg

Row | SMILES | AUC0–24h | C max | T max
2 | O=C1N[C@@H](Cc2ccccc2)C(=O)N2CCC[C@@H]12 [cyclo(Pro-Phe)] | 19.8164 ng·h/mL | 11.0670 ng/mL | 30 min

test system: not listed separately; test: Serum pharmacokinetics of CDPs after oral administration of DHG (targeted LC-MS, noncompartmental analysis); settings: serum after oral DHG

Row | SMILES | time of decline / return to baseline in serum
3 | O=C1[C@@H]2CCCN2C(=O)[C@@H]2CCCN12 [cyclo(Pro-Pro)] | up to 8 h

same assay, conditions: serum, mice, oral DHG

Row | SMILES | C max
4 | O=C1NCC(=O)N2CC(O)CC12 (centres unmarked) [cyclo(Hyp-Gly), cyclo(Gly-Hyp)] | 684 ng/mL

same assay, conditions: serum, mice, oral DHG 1000 mg/kg

Row | SMILES | AUC0–24h | C max | T max
5 | CC[C@H](C)[C@@H]1NC(=O)[C@@H]2CCCN2C1=O [cyclo(Pro-Ile)] | 71.9933 ng·h/mL | 24.5331 ng/mL | 30 min
6 | O=C1NCC(=O)N2CC(O)CC12 (centres unmarked) [cyclo(Hyp-Gly), cyclo(Gly-Hyp)] | 7371.695 ng·h/mL and 7371.6951 ng·h/mL | 683.7471 ng/mL | 120 min
7 | O=C1N[C@@H](Cc2ccccc2)C(=O)N2C[C@@H](O)C[C@@H]12 [cyclo(Phe-Hyp)] | 263.2271 ng·h/mL | 51.2931 ng/mL | 60 min
8 | CC(C)CC1NC(=O)C2CCCN2C1=O (centres unmarked) [cyclo(Pro-Leu)] | 176.6962 ng·h/mL | 81.2502 ng/mL | 30 min
9 | CC(C)[C@@H]1NC(=O)[C@@H]2CCCN2C1=O [cyclo(Pro-Val)] | 201.4294 ng·h/mL | 78.4401 ng/mL | 30 min
10 | O=C1N[C@@H](Cc2cnc[nH]2)C(=O)N2CCC[C@@H]12 [cyclo(Pro-His), cyclo(His-Pro)] | 13.9981 ng·h/mL | 1.9830 ng/mL | 30 min
11 | CC1NC(=O)C2CC(O)CN2C1=O (centres unmarked) [cyclo(Hyp-Ala)] | 2561.8131 ng·h/mL | 400.1572 ng/mL | 60 min
12 | O=C1[C@@H]2C[C@@H](O)CN2C(=O)[C@@H]2CCCN12 [cyclo(Pro-Hyp)] | 2126.6252 ng·h/mL | 408.1371 ng/mL | 60 min
13 | CC(C)CC1NC(=O)C2CC(O)CN2C1=O (centres unmarked) [cyclo(Hyp-Leu)] | 301.1580 ng·h/mL | 110.4803 ng/mL | 30 min
14 | O=C1[C@@H]2CCCN2C(=O)[C@@H]2CCCN12 [cyclo(Pro-Pro)] | 487.9963 ng·h/mL | 197.3334 ng/mL | 30 min
15 | O=C1NCC(=O)N2CCC[C@@H]12 [cyclo(Gly-Pro)] | 15547.0170 ng·h/mL | 4259.0300 ng/mL | 60 min

same assay, conditions: serum/blood after oral DHG, sampled to 24 h

Row | SMILES | time remained detectable in serum
16 | O=C1[C@@H]2C[C@@H](O)CN2C(=O)[C@@H]2CCCN12 [cyclo(Pro-Hyp)] | 24 h
17 | O=C1NCC(=O)N2CCC[C@@H]12 [cyclo(Gly-Pro)] | 12 h

test system: H2O2-induced HT-22 cells; test: Neuroprotection in H2O2-injured HT-22 cells (CCK-8 cell viability); settings: 50 μM; 4 h pretreatment, then 400 μM H2O2 24 h

Row | SMILES | cell viability in H2O2-injured HT-22 cells
18 | CC1NC(=O)C2CC(O)CN2C1=O (centres unmarked) [cyclo(Hyp-Ala)] | 68.515 ± 2.290%

same assay, conditions: compound 50 μM; H2O2-only model (0 μM) 48.645±0.347

Row | SMILES | Cell viability(%) in H2O2-induced HT-22 cells
19 | CC[C@H](C)[C@@H]1NC(=O)[C@@H]2CCCN2C1=O [cyclo(Pro-Ile)] | 61.087±0.749%
20 | O=C1NCC(=O)N2CC(O)CC12 (centres unmarked) [cyclo(Hyp-Gly), cyclo(Gly-Hyp)] | 62.961±1.166%
21 | O=C1N[C@@H](Cc2ccccc2)C(=O)N2C[C@@H](O)C[C@@H]12 [cyclo(Phe-Hyp)] | 63.241±3.395%
22 | CC(C)CC1NC(=O)C2CCCN2C1=O (centres unmarked) [cyclo(Pro-Leu)] | 57.413±6.700%
23 | CC(C)[C@@H]1NC(=O)[C@@H]2CCCN2C1=O [cyclo(Pro-Val)] | 60.019±9.124%
24 | O=C1N[C@@H](Cc2cnc[nH]2)C(=O)N2CCC[C@@H]12 [cyclo(Pro-His), cyclo(His-Pro)] | 55.307±7689%
25 | O=C1[C@@H]2C[C@@H](O)CN2C(=O)[C@@H]2CCCN12 [cyclo(Pro-Hyp)] | 67.606±2.468%
26 | CC(C)CC1NC(=O)C2CC(O)CN2C1=O (centres unmarked) [cyclo(Hyp-Leu)] | 60.867±9.188%
27 | O=C1[C@@H]2CCCN2C(=O)[C@@H]2CCCN12 [cyclo(Pro-Pro)] | 60.084±2.807%
28 | O=C1NCC(=O)N2CCC[C@@H]12 [cyclo(Gly-Pro)] | 53.985±7.459%

test system: not given; test: not given; parameters: method as in number not printed ("the literature reports"); settings: mice; ref number not printed ("the literature reports"); cited from earlier work

Row | SMILES | time to drop to basal levels
29 | O=C(O)[C@@H]1C[C@@H](O)CN1C(=O)[C@@H]1CCCN1 [Pro-Hyp] (HELM PEPTIDE1{P.[Hyp]}$$$$V2.0) | ≤ 3 h

test system: not given; test: not given; parameters: method as in number not printed ("A study in humans"); settings: humans; ref number not printed ("A study in humans"); cited from earlier work

Row | SMILES | T max, C max, and AUC0–4h compared with cyclo(Gly-Pro)
30 | NCC(=O)N1CCC[C@H]1C(=O)O [Gly-Pro] (H-Gly-Pro-OH) | lower

test system: not given; test: not given; settings: mouse, in vivo, po

Row | SMILES | Peptide signal (feature intensity) in the small intestine, 30 min | Peptide signal (feature intensity) in the small intestine, 60 min | Peptide signal (feature intensity) in the small intestine, 120 min | Peptide signal (feature intensity) in the small intestine, 240 min
31 | O=C1N[C@@H](Cc2ccccc2)C(=O)N2CCC[C@@H]12 [cyclo(Pro-Phe)] | 2.06E+05 | 0.00E+00 | 2.49E+05 | 2.18E+05

test system: not listed separately; test: Concentrations of CDPs in stomach, small intestine and cecum contents after oral DHG (targeted spatiotemporal metabolomics); assay type: in vivo, C57 mice; settings: cecum contents at 8 h
Method: The supernatant was dried using N2.
For gastrointestinal content analysis, freeze-dried powders (1 mg each) of stomach, small intestine, and cecum contents collected over the 0–24 h postadministration period were accurately weighed. The samples were extracted using the same pretreatment procedure as applied for DHG, namely, ultrasonication with 75% methanol for 30 min at room temperature, followed by centrifugation (13,500 rpm, 10 min). The supernatants were collected, dried under nitrogen, and reconstituted in 75% methanol for LC–MS analysis. Quantitation was performed against the 12-point calibration curves established above, ensuring consistency with the DHG quantitation workflow. Samples from different time points were analyzed individually to characterize the temporal distribution of CDPs within each gastrointestinal compartment.

Row | SMILES | concentration in the cecum
32 | O=C1NCC(=O)N2CC(O)CC12 (centres unmarked) [cyclo(Hyp-Gly), cyclo(Gly-Hyp)] | 358.966 ng/g

same assay, conditions: cecum, 8 h

Row | SMILES | cecum concentration at 8 h compared with peak levels in stomach and small intestine
33 | O=C1NCC(=O)N2CC(O)CC12 (centres unmarked) [cyclo(Hyp-Gly), cyclo(Gly-Hyp)] | surpassed the peak levels observed in the stomach and small intestine
34 | O=C1N[C@@H](Cc2ccccc2)C(=O)N2C[C@@H](O)C[C@@H]12 [cyclo(Phe-Hyp)] | surpassed the peak levels observed in the stomach and small intestine
35 | O=C1[C@@H]2C[C@@H](O)CN2C(=O)[C@@H]2CCCN12 [cyclo(Pro-Hyp)] | surpassed the peak levels observed in the stomach and small intestine

same assay, conditions: small intestine contents at 1 h

Row | SMILES | concentration in the small intestine
36 | O=C1NCC(=O)N2CC(O)CC12 (centres unmarked) [cyclo(Hyp-Gly), cyclo(Gly-Hyp)] | 354.578 ng/g

same assay, conditions: stomach contents at 0.5 h

Row | SMILES | concentration in the stomach
37 | O=C1NCC(=O)N2CC(O)CC12 (centres unmarked) [cyclo(Hyp-Gly), cyclo(Gly-Hyp)] | 265.229 ng/g

test system: not given; test: not given; parameters: method as in number not printed ("It was reported"); settings: linear dipeptide; ref number not printed ("It was reported"); cited from earlier work

Row | SMILES | time to decrease to a negligible level after oral administration
38 | NCC(=O)N1CCC[C@H]1C(=O)O [Gly-Pro] (H-Gly-Pro-OH) | ≤ 1 h

test system: not listed separately; test: FBMN analysis of short peptides in small intestine contents and serum after oral DHG; settings: serum, time points 0.5-4 h after oral DHG

Row | SMILES | time detected in serum (FBMN)
39 | O=C1N[C@@H](Cc2ccccc2)C(=O)N2C[C@@H](O)C[C@@H]12 [cyclo(Phe-Hyp)] | 0.5 to 4 h
40 | CC(C)CC1NC(=O)C2CCCN2C1=O (centres unmarked) [cyclo(Pro-Leu)] | 0.5 to 4 h
41 | CC(C)[C@@H]1NC(=O)[C@@H]2CCCN2C1=O [cyclo(Pro-Val)] | 0.5 to 4 h
42 | CC(C)CC1NC(=O)C2CC(O)CN2C1=O (centres unmarked) [cyclo(Hyp-Leu)] | 0.5 to 4 h

test system: Glu-induced HT-22 cells; test: Neuroprotection in Glu-injured HT-22 cells (CCK-8 cell viability); settings: 50 μM (stated for cyclo(Hyp-Ala)); 4 h pretreatment, then 20 mM Glu 24 h; model group 40.759 ± 1.939%

Row | SMILES | cell viability in Glu-injured HT-22 cells
43 | CC[C@H](C)[C@@H]1NC(=O)[C@@H]2CCCN2C1=O [cyclo(Pro-Ile)] | 63.104 ± 2.519 % cell viability
44 | O=C1NCC(=O)N2CC(O)CC12 (centres unmarked) [cyclo(Hyp-Gly), cyclo(Gly-Hyp)] | 63.703 ± 1.518 % cell viability
45 | O=C1N[C@@H](Cc2ccccc2)C(=O)N2C[C@@H](O)C[C@@H]12 [cyclo(Phe-Hyp)] | 60.206 ± 4.409 % cell viability
46 | CC1NC(=O)C2CC(O)CN2C1=O (centres unmarked) [cyclo(Hyp-Ala)] | 70.614 ± 4.85 % cell viability
47 | O=C1[C@@H]2C[C@@H](O)CN2C(=O)[C@@H]2CCCN12 [cyclo(Pro-Hyp)] | 60.071 ± 3.101 % cell viability

same assay, conditions: compound 25 μM; Glu-only model (0 μM) 40.759±1.939

Row | SMILES | Cell viability(%) in Glu-induced HT-22 cells
48 | CC[C@H](C)[C@@H]1NC(=O)[C@@H]2CCCN2C1=O [cyclo(Pro-Ile)] | 58.030±5.577%
49 | O=C1NCC(=O)N2CC(O)CC12 (centres unmarked) [cyclo(Hyp-Gly), cyclo(Gly-Hyp)] | 61.970±4.223%
50 | O=C1N[C@@H](Cc2ccccc2)C(=O)N2C[C@@H](O)C[C@@H]12 [cyclo(Phe-Hyp)] | 56.084±2.124%
51 | CC(C)CC1NC(=O)C2CCCN2C1=O (centres unmarked) [cyclo(Pro-Leu)] | 52.208±0.555%
52 | CC(C)[C@@H]1NC(=O)[C@@H]2CCCN2C1=O [cyclo(Pro-Val)] | 57.390±2.314%
53 | O=C1N[C@@H](Cc2cnc[nH]2)C(=O)N2CCC[C@@H]12 [cyclo(Pro-His), cyclo(His-Pro)] | 52.701±4.050%
54 | CC1NC(=O)C2CC(O)CN2C1=O (centres unmarked) [cyclo(Hyp-Ala)] | 54.245±1.226%
55 | O=C1[C@@H]2C[C@@H](O)CN2C(=O)[C@@H]2CCCN12 [cyclo(Pro-Hyp)] | 53.105±7.712%
56 | CC(C)CC1NC(=O)C2CC(O)CN2C1=O (centres unmarked) [cyclo(Hyp-Leu)] | 53.193±5.729%
57 | O=C1[C@@H]2CCCN2C(=O)[C@@H]2CCCN12 [cyclo(Pro-Pro)] | 57.390±2.465%
58 | O=C1NCC(=O)N2CCC[C@@H]12 [cyclo(Gly-Pro)] | 54.865±0.079%

same assay, conditions: compound 50 μM; Glu-only model (0 μM) 40.759±1.939

Row | SMILES | Cell viability(%) in Glu-induced HT-22 cells
59 | O=C1NCC(=O)N2CC(O)CC12 (centres unmarked) [cyclo(Hyp-Gly), cyclo(Gly-Hyp)] | 53.703±1.518%
60 | CC(C)CC1NC(=O)C2CCCN2C1=O (centres unmarked) [cyclo(Pro-Leu)] | 55.781±2.676%
61 | CC(C)[C@@H]1NC(=O)[C@@H]2CCCN2C1=O [cyclo(Pro-Val)] | 58.518±3.306%
62 | O=C1N[C@@H](Cc2cnc[nH]2)C(=O)N2CCC[C@@H]12 [cyclo(Pro-His), cyclo(His-Pro)] | 55.361±5.121%
63 | CC(C)CC1NC(=O)C2CC(O)CN2C1=O (centres unmarked) [cyclo(Hyp-Leu)] | 53.590±3.417%
64 | O=C1[C@@H]2CCCN2C(=O)[C@@H]2CCCN12 [cyclo(Pro-Pro)] | 58.451±5.789%
65 | O=C1NCC(=O)N2CCC[C@@H]12 [cyclo(Gly-Pro)] | 58.506±3.833%
